Assay results as given in PubChem BioAssay AID2060898 (Molecular Pharmacology Branch, DTP, NCI, 2025).

System: 616215-338-R-J1-PDC complex spheroid viability
Assay: Anticancer human tumor 616215-338-R-J1-PDC patient-derived colon adenocarcinoma cell line growth inhibition [RAS]
Settings: for IC50: curve of first compound; for viability, T/C: stronger effect = lower value
Summary of the method: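 Tumour cells grown as complex spheroids with HUVEC endothelial cells and mesenchymal stem cells, treated with RAS pathway inhibitor combinations. Each agent spans half-log steps from near clinical Cmax, or 10 microM where Cmax is unknown.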

[1] = second compound 0.00316 µM, first compound 0.00316 µM
[2] = second compound 0.00316 µM, first compound 0.01 µM
[3] = second compound 0.00316 µM, first compound 0.0316 µM
[4] = second compound 0.00316 µM, first compound 0.1 µM
[5] = second compound 0.01 µM, first compound 0.00316 µM
[6] = second compound 0.01 µM, first compound 0.01 µM
[7] = second compound 0.01 µM, first compound 0.0316 µM
[8] = second compound 0.01 µM, first compound 0.1 µM
[9] = second compound 0.0316 µM, first compound 0.00316 µM
[10] = second compound 0.0316 µM, first compound 0.01 µM
[11] = second compound 0.0316 µM, first compound 0.0316 µM
[12] = second compound 0.0316 µM, first compound 0.1 µM
[13] = second compound 0.1 µM, first compound 0.00316 µM
[14] = second compound 0.1 µM, first compound 0.01 µM
[15] = second compound 0.1 µM, first compound 0.0316 µM
[16] = second compound 0.1 µM, first compound 0.1 µM
[17] = second compound 0.316 µM, first compound 0.00316 µM
[18] = second compound 0.316 µM, first compound 0.01 µM
[19] = second compound 0.316 µM, first compound 0.0316 µM
[20] = second compound 0.316 µM, first compound 0.1 µM
[21] = second compound 1 µM, first compound 0.00316 µM
[22] = second compound 1 µM, first compound 0.01 µM
[23] = second compound 1 µM, first compound 0.0316 µM
[24] = second compound 1 µM, first compound 0.1 µM
[25] = second compound 0.00316 µM, first compound 0.316 µM
[26] = second compound 0.00316 µM, first compound 1 µM
[27] = second compound 0.01 µM, first compound 0.316 µM
[28] = second compound 0.01 µM, first compound 1 µM
[29] = second compound 0.0316 µM, first compound 0.316 µM
[30] = second compound 0.0316 µM, first compound 1 µM
[31] = second compound 0.1 µM, first compound 0.316 µM
[32] = second compound 0.1 µM, first compound 1 µM
[33] = second compound 0.316 µM, first compound 0.316 µM
[34] = second compound 0.316 µM, first compound 1 µM
[35] = second compound 1 µM, first compound 0.316 µM
[36] = second compound 1 µM, first compound 1 µM
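Further: spheroids exposed to agents for seven days before viability readout.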
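Wherever viability, T/C is given: 100% = DMSO vehicle control viability.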

CC(C)n1nc(-c2ccc3oc(N)nc3c2)c2c(N)ncnc21 + C=CC(=O)N1CCN(c2nc(OCC3CCCN3C)nc3c(F)c(-c4nc(N)cc(C)c4C(F)(F)F)c(Cl)cc23)C(C)C1
IC50 (second compound 0.00316 µM): > 100 nM | IC50 (second compound 0.01 µM): > 100 nM | IC50 (second compound 0.0316 µM): > 100 nM | IC50 (second compound 0.1 µM): > 100 nM | IC50 (second compound 0.316 µM): > 100 nM | IC50 (second compound 1 µM): > 100 nM | viability, T/C (second compound 0.00316 µM, first compound 0.000316 µM): 107% | viability, T/C (second compound 0.00316 µM, first compound 0.001 µM): 109% | viability, T/C [1]: 99.9% | viability, T/C [2]: 119% | viability, T/C [3]: 120% | viability, T/C [4]: 77.9% | viability, T/C (second compound 0.01 µM, first compound 0.000316 µM): 100% | viability, T/C (second compound 0.01 µM, first compound 0.001 µM): 111% | viability, T/C [5]: 107% | viability, T/C [6]: 119% | viability, T/C [7]: 117% | viability, T/C [8]: 70.7% | viability, T/C (second compound 0.0316 µM, first compound 0.000316 µM): 105% | viability, T/C (second compound 0.0316 µM, first compound 0.001 µM): 109% | viability, T/C [9]: 113% | viability, T/C [10]: 111% | viability, T/C [11]: 114% | viability, T/C [12]: 71.7% | viability, T/C (second compound 0.1 µM, first compound 0.000316 µM): 110% | viability, T/C (second compound 0.1 µM, first compound 0.001 µM): 100% | viability, T/C [13]: 111% | viability, T/C [14]: 116% | viability, T/C [15]: 109% | viability, T/C [16]: 72.2% | viability, T/C (second compound 0.316 µM, first compound 0.000316 µM): 109% | viability, T/C (second compound 0.316 µM, first compound 0.001 µM): 108% | viability, T/C [17]: 111% | viability, T/C [18]: 109% | viability, T/C [19]: 129% | viability, T/C [20]: 71.3% | viability, T/C (second compound 1 µM, first compound 0.000316 µM): 109% | viability, T/C (second compound 1 µM, first compound 0.001 µM): 99.6% | viability, T/C [21]: 118% | viability, T/C [22]: 118% | viability, T/C [23]: 115% | viability, T/C [24]: 70%

CC(Nc1ccc2c(c1)OCCn1cc(N3C(=O)OCC3C(F)F)nc1-2)C(N)=O (stereo unspecified) + C=CC(=O)N1CCN(c2nc(OCC3CCCN3C)nc3c(F)c(-c4nc(N)cc(C)c4C(F)(F)F)c(Cl)cc23)C(C)C1
IC50 (second compound 0.00316 µM): > 10000 nM | IC50 (second compound 0.01 µM): > 10000 nM | IC50 (second compound 0.0316 µM): > 10000 nM | IC50 (second compound 0.1 µM): > 10000 nM | IC50 (second compound 0.316 µM): > 10000 nM | IC50 (second compound 1 µM): > 10000 nM | viability, T/C [3]: 106% | viability, T/C [4]: 122% | viability, T/C [25]: 109% | viability, T/C [26]: 101% | viability, T/C (second compound 0.00316 µM, first compound 3.16 µM): 100% | viability, T/C (second compound 0.00316 µM, first compound 10 µM): 82.2% | viability, T/C [7]: 106% | viability, T/C [8]: 115% | viability, T/C [27]: 110% | viability, T/C [28]: 111% | viability, T/C (second compound 0.01 µM, first compound 3.16 µM): 105% | viability, T/C (second compound 0.01 µM, first compound 10 µM): 85.9% | viability, T/C [11]: 110% | viability, T/C [12]: 114% | viability, T/C [29]: 119% | viability, T/C [30]: 115% | viability, T/C (second compound 0.0316 µM, first compound 3.16 µM): 93.3% | viability, T/C (second compound 0.0316 µM, first compound 10 µM): 80.1% | viability, T/C [15]: 111% | viability, T/C [16]: 108% | viability, T/C [31]: 107% | viability, T/C [32]: 131% | viability, T/C (second compound 0.1 µM, first compound 3.16 µM): 101% | viability, T/C (second compound 0.1 µM, first compound 10 µM): 77.9% | viability, T/C [19]: 109% | viability, T/C [20]: 103% | viability, T/C [33]: 111% | viability, T/C [34]: 109% | viability, T/C (second compound 0.316 µM, first compound 3.16 µM): 103% | viability, T/C (second compound 0.316 µM, first compound 10 µM): 86.2% | viability, T/C [23]: 106% | viability, T/C [24]: 107% | viability, T/C [35]: 109% | viability, T/C [36]: 119% | viability, T/C (second compound 1 µM, first compound 3.16 µM): 98% | viability, T/C (second compound 1 µM, first compound 10 µM): 73.4%

O=C(c1ccc(F)c(F)c1Nc1ccc(I)cc1F)N1CC(O)([C@@H]2CCCCN2)C1 + C=CC(=O)N1CCN(c2nc(OCC3CCCN3C)nc3c(F)c(-c4nc(N)cc(C)c4C(F)(F)F)c(Cl)cc23)C(C)C1
IC50 (second compound 0.00316 µM): 62.1 nM | IC50 (second compound 0.01 µM): 70.7 nM | IC50 (second compound 0.0316 µM): 72.1 nM | IC50 (second compound 0.1 µM): 89.4 nM | IC50 (second compound 0.316 µM): 67.4 nM | IC50 (second compound 1 µM): 61.3 nM | viability, T/C [1]: 114% | viability, T/C [2]: 112% | viability, T/C [3]: 65.3% | viability, T/C [4]: 38.6% | viability, T/C [25]: 12.9% | viability, T/C [26]: 4.36% | viability, T/C [5]: 98.8% | viability, T/C [6]: 108% | viability, T/C [7]: 81.7% | viability, T/C [8]: 36% | viability, T/C [27]: 13.1% | viability, T/C [28]: 6.62% | viability, T/C [9]: 110% | viability, T/C [10]: 115% | viability, T/C [11]: 74.7% | viability, T/C [12]: 40% | viability, T/C [29]: 15% | viability, T/C [30]: 3.89% | viability, T/C [13]: 106% | viability, T/C [14]: 116% | viability, T/C [15]: 82.5% | viability, T/C [16]: 47.5% | viability, T/C [31]: 16.7% | viability, T/C [32]: 6.51% | viability, T/C [17]: 100% | viability, T/C [18]: 105% | viability, T/C [19]: 80.6% | viability, T/C [20]: 33.1% | viability, T/C [33]: 13.9% | viability, T/C [34]: 4.52% | viability, T/C [21]: 102% | viability, T/C [22]: 101% | viability, T/C [23]: 72.2% | viability, T/C [24]: 31.7% | viability, T/C [35]: 18.8% | viability, T/C [36]: 5.31%
